| SMILES | logP |
| --- | --- |
| C#CC(C)(C)N(C)C(C)C | 2.29 |
| O=NN(CCCl)C(=O)NC(CCC(=O)O)C(=O)O (configuration not stated) | 0.6 |
| FC(F)(F)c1nc2cc(Br)c(Br)cc2[nH]1 | 4.15 |
| CN(C)c1cnnc(N(C)C)c1 | 0.84 |
| CCCCc1ccc2nc(C(F)(F)F)[nH]c2c1 | 4.27 |
| O=S1(=O)N=C(c2ccccc2)Nc2ccccc21 | 1.78 |
| COc1cc(C=C[N+](=O)[O-])ccc1O | 1.88 |
| COc1cc(Cc2cnc(N)nc2N)cc(OC)c1-n1cccc1 | 1.78 |
| O=NN(CCF)C(=O)NC1CCC(NC(=O)N(CCF)N=O)CC1 (configuration not stated) | 1.34 |
| COc1cc(-n2nc(C)cc2OC)nc(C)n1 | 1.54 |
| CCCCN(SN(C)C(=O)ON=C(C)SC)C(=O)OC | 2.5 |
| CCCCCC[n+]1ccccc1.[Br-] | -2.03 |
| COC1C(Cl)C(Cl)C(Cl)C(OC)C1OC (configuration not stated) | 1.87 |
| Clc1ccc(Cl)c(-c2ccccc2)c1Cl | 5.67 |
| N#CSc1ccccc1 | 2.54 |
| CCCCN(SN(C)C(=O)ON=C(C)SC)C(=O)c1ccccc1 | 3.4 |
| CC(=O)C(C#N)=NNc1ccc(Cl)cc1C | 4.28 |
| CNP(=O)(OC)Oc1ccc(C(C)(C)C)cc1 (configuration not stated) | 2.71 |
| O=C1CC(C(=O)O)Oc2ccc(Cl)cc21 (configuration not stated) | 1.77 |
| CCCOn1c(=O)[nH]c(CCC)c(Br)c1=O | 1.73 |
| CCCCCCc1nnc(SC)n(N)c1=O | 2.68 |
| CSC(C)=NOC(=O)N(C)SN(C)C(=O)N(C)C | 1.2 |

| SMILES | logP |
| --- | --- |
| CC1(C)N=C(N)N=C(N)N1c1cccc(C#N)c1 | -0.24 |
| COP(=O)(NCC(C)C)Oc1cc(Cl)c(Cl)cc1Cl (configuration not stated) | 3.86 |
| ClC1C(Cl)C(Cl)C(Br)C(Br)C1Cl (configuration not stated) | 3.88 |
| COc1cc(Cc2cnc(N)nc2N)cc(OC)c1I | 2.4 |
| CCc1cnc2cccc(C)n2c1=O | 1.79 |
| CCCCC1OC(=O)c2cc(NC(C)=O)ccc21 (configuration not stated) | 2.77 |
| OCCCCn1nnc2ccccc21 | 1.03 |
| FC(F)OC(F)(F)C(F)Cl (configuration not stated) | 2.1 |
| CN1C(=O)CN=C(c2c(Cl)cccc2Cl)c2cc(Cl)ccc21 | 3.04 |
| COc1ccc(C(N)=O)cc1N=NN(C)C | 0.44 |
| COc1cccc(C2=NCC(=O)Nc3ccc(Cl)cc32)c1 | 3.14 |
| COC12C(COC(N)=O)C3=C(C(=O)C(C)=C(N)C3=O)N1CC1C2N1COC(=O)c1ccccc1 (configuration not stated) | 1.26 |
| CC(C)CN(CC(C)C)C(=O)C=Cc1ccc2c(c1)OCO2 | 4.37 |
| COC(=O)C(C#N)=NNc1ccc2c(c1)OC(F)(F)C(F)(F)O2 | 4.86 |
| Cc1ccc2c([N+](=O)[O-])cc[n+]([O-])c2c1 | 1.42 |
| COc1cc(C)nn1-c1nc(C)cc(C)n1 | 0.73 |
| CC(C)c1cccc(OC2OC(CO)C(O)C(O)C2O)c1 (configuration not stated) | 0.65 |
| Nc1nc(N)nc(-c2ccc(Cl)cc2Cl)n1 | 2.07 |
| CCC(C)c1nnc(N)o1 (configuration not stated) | 0.62 |
| O=C1NC(=S)SC1=Cc1ccc([N+](=O)[O-])o1 | 0.74 |
| CN1CCN(C(=O)c2ccccc2)CC1 | 0.35 |
| CN1CCN=C1Nc1ncc([N+](=O)[O-])s1 | 1.8 |

| SMILES | logP |
| --- | --- |
| COc1cccc(N2C(=O)CCC2=O)c1 | 0.18 |
| Cc1nnc(N)o1 | -0.92 |
| Nc1ccc(C(O)C(CO)NC(=O)C(Cl)Cl)cc1 (configuration not stated) | -0.29 |
| O=S1(=O)NC(C(Cl)Cl)=Nc2cc(Cl)ccc21 | 1.81 |
| Nc1nc(N)nc(-c2cc(Cl)ccc2Br)n1 | 1.85 |
| FC(F)(F)c1nc2ncccc2[nH]1 | 1.38 |
| CCc1cc(C(=O)NN)ccn1 | 0.12 |
| Cc1cccc(NC(=O)CN2CCCCC2)c1 | 2.97 |
| COc1cc(C)nc2ccccc12 | 2.81 |
| COc1cc(C)nn1-c1ccncn1 | 0.5 |
| O=C([O-])c1ccc2ccccc2c1.[Na+] | -1.07 |
| NS(=O)(=O)c1nc2ccc(O)cc2s1 | 1.13 |
| CCOC(=O)C(C#N)=NNc1ccc([N+](=O)[O-])cc1[N+](=O)[O-] | 4.14 |
| Cc1c[n+]([O-])c2ccccc2c1[N+](=O)[O-] | 1.06 |
| Clc1cccc(Cl)c1-c1ccccc1 | 4.98 |
| Nc1cccc(O[Si]23OCCN(CCO2)CCO3)c1 | -1.15 |
| O=[N+]([O-])C=Cc1ccccc1[N+](=O)[O-] | 1.8 |
| COc1cc(Cc2cnc(N)nc2N)cc(OC)n1 | 1.64 |
| CCOC(=O)C(=Cc1ccc(OC)c(OC)c1)C(C)=O | 2.02 |
| CCCCCCCCCCCC[n+]1ccccc1C.[I-] | 1.32 |
| O=CNc1nccs1 | 0.54 |
| CN(C)c1ccc(Cc2cnc(N)nc2N)cc1 | 1.82 |

| SMILES | logP |
| --- | --- |
| COP(=O)(NC(C)(C)C)Oc1cc(Cl)c(Cl)cc1Cl (configuration not stated) | 3.83 |
| CC(=O)c1cccc(NS(=O)(=O)C(F)(F)F)c1 | 2.78 |
| CN(C)N=[N+]([O-])c1ccccc1 | 1.8 |
| CSc1nnc(C(C)C)c(=O)n1N | 1.01 |
| CCNCNC(=O)c1ccccc1 | 0.56 |
| CC1=NS(=O)(=O)c2c(Cl)cccc2N1 | 0.62 |
| Nc1nc(N)nc(-c2ccc(Cl)cc2Br)n1 | 2.09 |
| CCC(C)N(C)/N=N/c1nc[nH]c1C(N)=O (configuration not stated) | 1.08 |
| Cc1ccccc1C1=NCC(=O)N(C)c2ccc(Cl)cc21 | 3.03 |
| CCc1cnc(C=Cc2ccc([N+](=O)[O-])o2)nc1 | 1.55 |
| COP(=O)(OC)Oc1ccc([N+](=O)[O-])cc1Cl | 1.83 |
| O=S(=O)(Nc1ccc(C(F)(F)F)cc1)C(F)(F)F | 4.47 |
| COc1cc(S(=O)(=O)CCN2CCOCC2)cc(OC)c1OC | 1.29 |
| CN(C)N=Nc1cccc([N+](=O)[O-])c1 | 2.75 |
| CCCCCCOn1c(=O)[nH]c(C)c(Br)c1=O | 2.48 |
| CCCCCCCCCCCC[n+]1cc(C)cc(C)c1.[I-] | 1.91 |
| CC1C2CCC3C(O)C2(CC(O)C2(O)C1CC(O)C2(C)C)CC3(C)O (configuration not stated) | 1.51 |
| c1ccc(O[Si]23OCCN(CCO2)CCO3)cc1 | -0.3 |
| CSc1nnc(CC(C)C)c(=O)n1N | 1.39 |
| O=[N+]([O-])c1nccn1CC(O)COCC(F)(F)F (configuration not stated) | 0.52 |
| CCCOc1cccc(O)c1 | 2.59 |
| CCOC(=O)CCCCCN1C(=O)C=CC1=O | 1.5 |

| SMILES | logP |
| --- | --- |
| CCc1cccc(OC2OC(CO)C(O)C(O)C2O)c1 (configuration not stated) | 0.31 |
| CC(C)Oc1cn[nH]c1 | 1.13 |
| C#CC(C=CCl)(CC)OC(N)=O (configuration not stated) | 1.71 |
| CC(=O)c1ccc2c(c1)C(c1ccccc1F)=NCC(=O)N2 | 1.75 |
| CCC1(CC)OC(=O)c2ccccc21 | 2.69 |
| CC1CN(C)C(=Nc2ncc([N+](=O)[O-])s2)N1 (configuration not stated) | 1.95 |
| O=[N+]([O-])c1nccn1C1OC(CO)C(O)C1O (configuration not stated) | -1.15 |
| CCNP(=O)(OC)SC (configuration not stated) | 0.07 |
| N#Cc1cc(OCC(=O)O)ccc1Cl | 1.56 |
| C=C(Br)CC1(C(C)CC)C(=O)NC(=O)N(C)C1=O (configuration not stated) | 2.43 |
| COC(=O)C(C#N)=NNc1ccccc1 | 2.59 |
| COc1cc(Cc2cnc(N)nc2N)cc(OC)c1SC | 1.54 |
| O=[N+]([O-])C=Cc1ccccc1Cl | 2.85 |
| O=S1(=O)N=C(Cc2ccccc2)Nc2ccccc21 | 1.89 |
| Cc1nnc(SCc2ccccc2)[nH]1 | 1.68 |
| CC(=O)C(C#N)=NNc1cc(Cl)cc(Cl)c1 | 4.68 |
| CS(=O)(=O)Nc1cccc(NS(C)(=O)=O)c1 | 0.07 |
| CNC1C2CCC1c1ccccc12 (configuration not stated) | 2.37 |
| CC(=O)Nc1ccc(OC(=O)CBr)cc1 | 1.08 |

Source: the OPERA property sets (Mansouri et al. 2018)
